Experimental data from patent US20140005174A1, “INDOLE DERIVATIVES USEFUL AS CCR2 ANTAGONISTS” (priority 2011, published 2014).

Molecular target: T1, human CCR2 (Homo sapiens, UniProt P41597)
T1 construct: expressed in transfected cells; host or cells: Ba/F3 cells (membranes)
Assay: CCR2 Membrane Binding Assay (SPA radio-ligand binding, 125I-rhMCP-1)
Conditions: membranes from Ba/F3 cells transfected with human CCR2, 0.03 nM 125I-rhMCP-1
Method: The radio-ligand binding assay was done using scintillation proximity assay (SPA) technology. Briefly, membranes (1 μg per assay point) from Ba/F3 cells transfected with human CCR2, and wheat germ agglutinin-coated SPA beads (80 μg per point; Amersham, Arlington Heights,Ill.), were pre-incubated for 30 min at room temperature in CCR2 buffer (50 mM HEPES (pH=7.4), 10 mM MgCl2, 10 mM NaCl, 1 mM CaCL2, 0.1% BSA,10 μg/ml Saponin). At this point pre-bound SPA bead, membrane complex was incubated at room temperature for 4 h with varying concentrations of punitive CCR2 antagonists (in 1% DMSO, final) and 0.03 nM ^125I-rhMCP-1 in CCR2 Buffer (S.A. 2200 Ci/mmol, PerkinElmer Life and Analytical Science, Boston, Mass.; NEX332). Binding competition was measured using a 1450 Microbeta Trilux counter(Wallac, Gaithersburg, Md.). Binding constants (IC50 and slope) were calculated using GraphPad Prism software(GraphPad Software, Inc., La Jolla Calif.).

T1 sequence (P41597 whole entry): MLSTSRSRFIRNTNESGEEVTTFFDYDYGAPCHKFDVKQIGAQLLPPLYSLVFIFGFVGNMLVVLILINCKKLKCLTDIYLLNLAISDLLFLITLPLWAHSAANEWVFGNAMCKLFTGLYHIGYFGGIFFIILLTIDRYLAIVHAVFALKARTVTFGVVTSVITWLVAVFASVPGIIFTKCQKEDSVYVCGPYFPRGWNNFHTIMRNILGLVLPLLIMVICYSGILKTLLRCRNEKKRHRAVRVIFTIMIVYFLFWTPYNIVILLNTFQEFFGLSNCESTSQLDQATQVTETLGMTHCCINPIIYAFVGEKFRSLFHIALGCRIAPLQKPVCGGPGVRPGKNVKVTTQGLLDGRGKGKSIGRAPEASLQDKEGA

SMILES	IC50 (4 h room temperature) [nM]	IC50 (class symbols) [nM]
CC(C)c1cc2ccc3[nH]c(C(=O)NC4CCN(CCN5CCCCCC5)CC4)cc3c2o1 [Compound 2]	5.4	
CC(C)COc1cccc2[nH]c(C(=O)NC3CCN(CCN4CCCCCC4)CC3)cc12 [Compound 10]	4	
COc1cc2[nH]c(C(=O)NC3CCN(CCN4CCCCCC4)CC3)cc2c2ccccc12 [Compound 11]		201 to 900
COc1cccc2[nH]c(C(=O)NC3CCN(CCN4CCCCCC4)CC3)cc12 [Compound 12]		201 to 900
O=C(NC1CCN(CCN2CCCCC2)CC1)c1cc2c(cc(F)c3ccoc32)[nH]1 [Compound 13]		201 to 900
O=C(NC1CCN(CCN2CCCCCC2)CC1)c1cc2c(OCc3ccccc3)cccc2[nH]1 [Compound 14]	12.5	
CC(C)COc1cc2c(c3[nH]c(C(=O)NC4CCN(CCN5CCCCCC5)CC4)cc13)CCC2 [Compound 16]	40	
O=C(NC1CCN(CCN2CCCCCC2)CC1)c1cc2c(ccc3cc(-c4ccccc4)oc32)[nH]1 [Compound 17]	13	
O=C(NC1CCN(CCN2CCCCCC2)CC1)c1cc2c3ccccc3ccc2n1Cc1ccccc1 [Compound 18]		201 to 900

The next lines start with the values.

IC50 (4 h room temperature) [nM]	IC50 (class symbols) [nM]	SMILES
	51 to 200	CC(C)c1cc2ccc3[nH]c(C(=O)N[C@H]4[C@@H]5CN(CCN6CCCCCC6)C[C@@H]54)cc3c2o1 [Compound 3]
	51 to 200	O=C(NC1CCN(CCN2CCCCCC2)CC1)c1cc2c(ccc3ccccc32)[nH]1 [Compound 4]
	51 to 200	Cc1cc2ccc3[nH]c(C(=O)NC4CCN(CCN5CCCCCC5)CC4)cc3c2o1 [Compound 5]
	201 to 900	O=C(NC1CCN(CCN2CCCCCC2)CC1)c1cc2c(cc(F)c3ccoc32)[nH]1 [Compound 6]
	201 to 900	O=C(NC1CCN(CCN2CCCCCC2)CC1)c1cc2c3c(c(F)cc2[nH]1)CCO3 [Compound 7]
	201 to 900	Cc1c(C(=O)NC2CCN(CCN3CCCCCC3)CC2)[nH]c2ccc3ccccc3c12 [Compound 8]
	51 to 200	O=C(NC1CCN(CCN2CCCCCC2)CC1)c1cc2c(cc(F)c3ccccc32)[nH]1 [Compound 9]
	51 to 200	CC(C)c1cc2ccc3[nH]c(C(=O)NC4CC45CCN(CCN4CCCCCC4)CC5)cc3c2o1 (stereo not shown) [Compound 15]
	51 to 200	O=C(NC1[C@H]2CN(CCN3CCCCCC3)C[C@@H]12)c1cc2c(ccc3cc(-c4ccccc4)oc32)[nH]1 (stereo partly shown) [Compound 19]
	51 to 200	CCOc1cc2[nH]c(C(=O)NC3CCN(CCN4CCCCCC4)CC3)cc2c2ccccc12 [Compound 20]
